Test results: patent US20240376076A1, “INHIBITORS TARGETING UBIQUITIN SPECIFIC PROTEASE 7 (USP7)” (Dana-Farber Cancer Institute, Inc., priority 2021, published 2024)
pIC50: −log10 of the molar value. Counter-ions that a name gives are not always drawn.

Target: T1, USP7, Active human recombinant protein (Homo sapiens, UniProt Q93009)
T1 construct: purchased CP Lot; 20200225001
Assay: USP7 assay (Ubiquitin-Rhodamine 110 enzymatic assay)
Type: biochemical
Settings: read-out: IC50
Method: Enzymatic Assays with Exemplary USP7 Irreversible Inhibitors
ND refers to not disclosed.
USP7, Active human recombinant protein (CP, Lot. 20200225001), Ubiquitin-Rhodamine 110 (Rh110) (BostonBiochem, Cat. No. U-555), DMSO (Sigma, Cat. N34869), DTT (Sangon Biotech, Cat. No. A620058-0005), […] Tris pH 8.0 (Sigma, Cat. No. T2694-1L), Tween-20 (Sigma, Cat. No. P2287-100ML), EDTA (Invitrogen, Cat. No. 15575020, BSA (Sigma, Cat. No. B2064-100G), 384-well assay plate (Corning, Cat. No. 3573), Echo Qualified 384-Well Polypropylene Microplate 2.0, Clear, Flat Bottom (LABCYTE, Cat. No. 001-14555).
Dilute the compounds to 400× of the final desired highest inhibitor concentration in reaction by 100% DMSO. For all compounds, transfer the compounds to one well in a 384-well Echo plate and serially dilute the compound by 3-fold dilution of 100% DMSO in the next well and so forth for a total of 10 concentrations by Precision. Add 30 μL of 100% DMSO to two empty wells for no compound control and no enzyme control in the same 384-well Echo plate. Make the plate as a source plate.
For USP7 assay, transfer 50 nL of each well from the source plate to a 384-well assay plate (OptiPlate TM-384 F black assay plates) by Echo 550 Liquid Handler.
Added appropriate amount of USP7 in 1× assay Buffer to prepare 2× enzyme solution (USP7 final concentration: 0.05 nM). Added appropriate amount of Ubiquitin-Rhodamine 110 in 1× assay Buffer to prepare 2× substrate solution (Ubiquitin-Rhodamine 110 final concentration: 190 nM). Added 10 μL of 2× enzyme solution to each reaction well of the 384-well assay plate, except for control wells without enzyme (add 10 μL of 1× Assay Buffer instead as for low control). […] Transferred 2× substrate solution to the assay plate. Added 10 μL of 2× substrate solution to each well of the 384-well assay plate to start reaction. Centrifuged at 1000 rpm for 1 min. Read the plate kinetically on SpectraMax Paradigm for 20 min with excitation at 485 nm and emission at 535 nm. Copied raw data (slope) from Reader to obtain inhibition values in Excel using equation (1): […]
Max signal was obtained from the action of Enzyme and Substrate. Min signal was obtained from the Substrate only. To fit the data in XLFit excel add-in version 5.4.0.8 to obtain IC50 values used equation (2): […]
Y is % inhibition and X is compound concentration.

T1 sequence (Q93009 whole entry): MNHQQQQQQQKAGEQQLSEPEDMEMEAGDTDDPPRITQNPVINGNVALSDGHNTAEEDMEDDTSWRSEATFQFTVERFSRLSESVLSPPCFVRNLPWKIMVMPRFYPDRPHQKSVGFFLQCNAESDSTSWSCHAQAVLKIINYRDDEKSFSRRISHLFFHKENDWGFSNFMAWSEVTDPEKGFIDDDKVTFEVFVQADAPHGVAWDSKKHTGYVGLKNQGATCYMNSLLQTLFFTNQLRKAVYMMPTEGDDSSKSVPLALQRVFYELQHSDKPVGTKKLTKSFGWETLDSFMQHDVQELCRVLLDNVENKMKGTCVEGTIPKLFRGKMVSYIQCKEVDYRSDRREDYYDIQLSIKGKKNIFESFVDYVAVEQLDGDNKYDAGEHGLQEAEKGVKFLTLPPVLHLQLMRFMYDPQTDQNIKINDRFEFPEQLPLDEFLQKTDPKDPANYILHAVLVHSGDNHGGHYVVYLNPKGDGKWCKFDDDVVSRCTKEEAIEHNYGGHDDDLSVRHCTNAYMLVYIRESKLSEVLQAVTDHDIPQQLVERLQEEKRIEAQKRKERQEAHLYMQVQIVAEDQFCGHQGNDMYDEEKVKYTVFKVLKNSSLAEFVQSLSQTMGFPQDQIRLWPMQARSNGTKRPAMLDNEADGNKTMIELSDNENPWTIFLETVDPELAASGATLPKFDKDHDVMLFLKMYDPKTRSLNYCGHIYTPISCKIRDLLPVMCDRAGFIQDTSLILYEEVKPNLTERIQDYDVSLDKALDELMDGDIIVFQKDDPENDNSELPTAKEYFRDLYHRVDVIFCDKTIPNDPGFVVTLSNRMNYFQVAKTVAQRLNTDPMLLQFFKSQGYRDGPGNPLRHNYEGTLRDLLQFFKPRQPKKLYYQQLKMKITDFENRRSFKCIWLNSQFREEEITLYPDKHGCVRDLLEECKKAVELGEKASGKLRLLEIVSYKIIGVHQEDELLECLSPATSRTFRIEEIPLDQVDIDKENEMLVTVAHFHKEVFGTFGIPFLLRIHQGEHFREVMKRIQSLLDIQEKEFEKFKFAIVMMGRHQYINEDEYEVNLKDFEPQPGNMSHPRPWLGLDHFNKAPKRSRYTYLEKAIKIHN

Row | SMILES | pIC50
1 | O=C(NCCC1CC[C@@H](C(=O)N2CCC(O)(Cn3cnc4cc(-c5ncc(CN6CCNCC6)o5)ccc4c3=O)CC2)[C@H](c2ccccc2)C1)c1ccc2c(Cl)ccnc2c1 (stereo partly shown) | 7.00 to 7.70
2 | C=CC(=O)Nc1ccc(C#N)cc1N1CCC(C(=O)N2CCC(O)(Cn3cnc4cc(NC(=O)CCN5CCN(C)CC5)ccc4c3=O)CC2)C(c2ccccc2)C1 (stereo not shown) | < 6.00
3 | CN(C)CCCOc1ccc2c(=O)n(CC3(O)CCN(C(=O)C(Cn4ccc(F)n4)N(C)CCNC(=O)c4ccc5c(Cl)cc(C6CC6)nc5c4)CC3)cnc2c1 (stereo not shown) | 6.00 to 7.00
4 | CN(C)CCCOc1ccc2c(=O)n(CC3(O)CCN(C(=O)C(Cc4ccccc4)N(C)CCNC(=O)c4ccc5c(Cl)cc(C6CC6)nc5c4)CC3)cnc2c1 (stereo not shown) | 6.00 to 7.00
5 | CN1CCN(CCC(=O)Nc2ccc3c(=O)n(CC4(O)CCN(C(=O)C(CCCNC(=O)c5ccc6c(Cl)cc(-c7cccc(C(F)(F)F)c7)nc6c5)Cc5ccccc5)CC4)cnc3c2)CC1 (stereo not shown) [Compound 15, N-(4-benzyl-5-(4-hydroxy-4-((7-(3-(4-methylpiperazin-1-yl)propanamido)-4-oxoquinazolin-3(4H)-yl)methyl)piperidin-1-yl)-5-oxopentyl)-4-chloro-2-(3-(trifluoromethyl)phenyl)quinoline-7-carboxamide] | 6.00 to 7.00
6 | CN1CCN(CCC(=O)Nc2ccc3c(=O)n(CC4(O)CCN(C(=O)[C@H](CCCNC(=O)c5ccc6c(Cl)cc(-c7cnn(CC(F)(F)F)c7)nc6c5)Cc5ccccc5)CC4)cnc3c2)CC1 [Compound 19] | < 6.00
7 | CCS(=O)(=O)Nc1ccccc1-c1ccc(C(=O)N2CCC(O)(Cn3cnc4cc(NC(=O)CCN5CCN(C)CC5)ccc4c3=O)CC2)cc1 [Compound 25] | < 6.00
8 | C=CS(=O)(=O)NCc1cccc(C(=O)N2CCC(O)(Cn3cnc4cc(NC(=O)CCN5CCN(C)CC5)ccc4c3=O)CC2)c1 [Compound 26, N-(3-((4-hydroxy-1-(3-(vinylsulfonamidomethyl)benzoyl)piperidin-4-yl)methyl)-4-oxo-3,4-dihydroquinazolin-7-yl)-3-(4-methylpiperazin-1-yl)propanamide] | < 6.00
9 | CN(C)CC(=O)Nc1ccc2c(=O)n(CC3(O)CCN(C(=O)[C@H]4CC[C@@H](NC(=O)c5ccc6c(Cl)ccnc6c5)CC4)CC3)cnc2c1 [Compound 34, 4-chloro-N-((1s,4s)-4-(4-((7-(2-(dimethylamino)acetamido)-4-oxoquinazolin-3(4H)-yl)methyl)-4-hydroxypiperidine-1-carbonyl)cyclohexyl)quinoline-7-carboxamide] | < 6.00
10 | CN(C)CC(=O)Nc1ccc2c(=O)n(CC3(O)CCN(C(=O)[C@H]4CC[C@H](NC(=O)c5ccc6c(Cl)ccnc6c5)CC4)CC3)cnc2c1 [Compound 35, 4-chloro-N-((1R,4R)-4-(4-((7-(2-(dimethylamino)acetamido)-4-oxoquinazolin-3(4H)-yl)methyl)-4-hydroxypiperidine-1-carbonyl)cyclohexyl)quinoline-7-carboxamide] | < 6.00
11 | CN(C)CC(=O)Nc1ccc2c(=O)n(CC3(O)CCN(C(=O)C4CCCC(NC(=O)c5ccc6c(Cl)ccnc6c5)C4)CC3)cnc2c1 (stereo not shown) [Compound 36, 4-chloro-N-(3-(4-((7-(2-(dimethylamino)acetamido)-4-oxoquinazolin-3(4H)-yl)methyl)-4-hydroxypiperidine-1-carbonyl)cyclohexyl)quinoline-7-carboxamide] | < 6.00

The remaining lines, values ahead:

Row | pIC50 | SMILES
12 | > 7.70 | CN1CCN(CCC(=O)Nc2ccc3c(=O)n(CC4(O)CCN(C(=O)C(CCCNC(=O)c5ccc6c(Cl)c7c(nc6c5)CCCC7)Cc5ccccc5)CC4)cnc3c2)CC1 (stereo not shown)
13 | 6.00 to 7.00 | CN1CCN(CCC(=O)Nc2ccc3c(=O)n(CC4(O)CCN(C(=O)[C@H](CCCNC(=O)c5ccc6c(Cl)c7c(nc6c5)CCCC7)Cc5ccccc5)CC4)cnc3c2)CC1
14 | > 7.70 | CN(C)CCCOc1ccc2c(=O)n(CC3(O)CCN(C(=O)[C@@H](CCCNC(=O)c4ccc5c(Cl)c(CO)cnc5c4)Cc4ccccc4)CC3)cnc2c1
15 | < 6.00 | CN1CCN(CCC(=O)Nc2ccc3c(=O)n(CC4(O)CCN(C(=O)[C@H](CCCNC(=O)c5ccc6c(Cl)cc(-c7ccc(F)cc7)nc6c5)Cc5ccccc5)CC4)cnc3c2)CC1 [Compound 4, (R)—N-(4-benzyl-5-(4-hydroxy-4-((7-(3-(4-methylpiperazin-1-yl)propanamido)-4-oxoquinazolin-3(4H)-yl)methyl)piperidin-1-yl)-5-oxopentyl)-4-chloro-2-(4-fluorophenyl)quinoline-7-carboxamide]
16 | 7.00 to 7.70 | Nc1cccc(-n2ncc3c(=O)n(CC4(O)CCN(C(=O)C(CCCNC(=O)c5ccc6c(Cl)ccnc6c5)Cc5ccccc5)CC4)cnc32)c1 (stereo not shown) [Compound 8, N-(5-(4-((1-(3-aminophenyl)-4-oxo-1H-pyrazolo[3,4-d]pyrimidin-5(4H)-yl)methyl)-4-hydroxypiperidin-1-yl)-4-benzyl-5-oxopentyl)-4-chloroquinoline-7-carboxamide]
17 | 7.00 to 7.70 | N[C@@H](c1ccc(-n2ncc3c(=O)n(CC4(O)CCN(C(=O)C(CCCNC(=O)c5ccc6c(Cl)ccnc6c5)Cc5ccccc5)CC4)cnc32)cc1)C(F)(F)F (stereo partly shown) [Compound 9, N-(5-(4-((1-(4-(1-amino-2,2,2-trifluoroethyl)phenyl)-4-oxo-1H-pyrazolo[3,4-d]pyrimidin-5(4H)-yl)methyl)-4-hydroxypiperidin-1-yl)-4-benzyl-5-oxopentyl)-4-chloroquinoline-7-carboxamide]
18 | < 6.00 | O=C(NCCC[C@H](Cc1ccccc1)C(=O)N1CCC(O)(Cn2cnc(NCCN3CCCC3)cc2=O)CC1)c1ccc2c(Cl)ccnc2c1 [Compound 12, N-(4-benzyl-5-(4-hydroxy-4-((6-oxo-4-(2-(pyrrolidin-1-yl)ethylamino)pyrimidin-1(6H)-yl)methyl)piperidin-1-yl)-5-oxopentyl)-4-chloroquinoline-7-carboxamide]
19 | 6.00 to 7.00 | CN1CCN(CCC(=O)Nc2ccc3c(=O)n(CC4(O)CCN(C(=O)C(CCCNC(=O)c5ccc6c(Cl)cc(-c7cccnc7)nc6c5)Cc5ccccc5)CC4)cnc3c2)CC1 (stereo not shown) [Compound 14, N-(4-benzyl-5-(4-hydroxy-4-((7-(3-(4-methylpiperazin-1-yl)propanamido)-4-oxoquinazolin-3(4H)-yl)methyl)piperidin-1-yl)-5-oxopentyl)-4-chloro-2-(pyridin-3-yl)quinoline-7-carboxamide]
20 | 6.00 to 7.00 | CN1CCN(CCC(=O)Nc2ccc3c(=O)n(CC4(O)CCN(C(=O)C(CCCNC(=O)c5ccc6c(Cl)cc(-c7cccc(C#N)c7)nc6c5)Cc5ccccc5)CC4)cnc3c2)CC1 (stereo not shown) [Compound 16, N-(4-benzyl-5-(4-hydroxy-4-((7-(3-(4-methylpiperazin-1-yl)propanamido)-4-oxoquinazolin-3(4H)-yl)methyl)piperidin-1-yl)-5-oxopentyl)-4-chloro-2-(3-cyanophenyl)quinoline-7-carboxamide]
21 | 7.00 to 7.70 | CN1CCN(CCC(=O)Nc2ccc3c(=O)n(CC4(O)CCN(C(=O)C(CCCNC(=O)c5ccc6c(Cl)cc(-c7cccc(CN)c7)nc6c5)Cc5ccccc5)CC4)cnc3c2)CC1 (stereo not shown) [Compound 17, 2-(3-(aminomethyl)phenyl)-N-(4-benzyl-5-(4-hydroxy-4-((7-(3-(4-methylpiperazin-1-yl)propanamido)-4-oxoquinazolin-3(4H)-yl)methyl)piperidin-1-yl)-5-oxopentyl)-4-chloroquinoline-7-carboxamide hydrochloride]
22 | < 6.00 | CN1CCN(CCn2ncc3ncn(CC4(O)CCN(C(=O)C(CCCNC(=O)c5ccc6c(Cl)ccnc6c5)Cc5ccccc5)CC4)c(=O)c32)CC1 (stereo not shown) [Compound 28]
